# How the values were obtained:
# [1] = Hydrodynamic diameter of complexes by dynamic light scattering (DLS); format: physicochemical
# Protocol: Sizes of complexes described in the present examples were analyzed by DynaPro PlateReader II, using dynamic light scattering (DLS) for calculating the hydrodynamic diameter of complexes. The formulations are measured by diluting the sample to 0.0125 mg/mL RNA in 120 μl of MGB (10 mM MES, pH 6.1, 5% D-Glucose) 5% in wells of a 96-well plate. Ten acquisitions are recorded per well, each lasting 5 seconds.
# female BALB/c mice = test: In-vivo luciferase expression (bioluminescence) in applied tissue after i.m. injection of formulated modRNA or saRNA; conditions: modRNA i.m., N/P 6
# Protocol: Eighteen female BALB/c mice were divided into […] study groups. All groups received the same amount of formulated luciferase encoding modRNA or saRNA (1 μg), applied i.m. to each leg. At […] time points (6 hours, 24 hours, 72 hours, 6 days, 8 days, 20 days), in-vivo luciferase expression in applied tissue was measured. Three modRNA groups were formulated with JRL13 at three different N/P Ratios (1, 6, or 12) and three saRNA groups were formulated with JRL13 at three different N/P Ratios (either 1, 6 or 12). N/P ratio is calculated based on the JRL13-RNA charges ratio, as described herein. […] FIG. 4C is a bar graph illustrating quantified bioluminescence over the duration of the experiment for example compositions having indicated N/P ratios comprising modRNA and JRL13. FIG. 4D is a bar graph illustrating quantified bioluminescence over the duration of the experiment for example compositions having indicated N/P ratios comprising saRNA and JRL13.
# The present example examines the impact of different cationic groups on intramuscular delivery of saRNA. […] At six time points (6 hours, 24 hours, 72 hours, 6 days, 9 days, 20 days), in-vivo luciferase expression in applied tissue was measured. […] FIG. 5B is a bar graph illustrating quantified bioluminescence over the duration of the experiment and normalized to the JRL13-saRNA group. […]
# [2] = tested on: Hemagglutinin (HA) protein of the influenza strain California/7/2009; test: Anti-Influenza HA IgG in serum by enzyme-linked immunosorbent assay after i.m. vaccination; format: in vivo; conditions: for IgG concentration against HA: oligosaccharide + Tween40 1:0.5, HA modRNA 0.5 μg i.m. prime/boost day 0/day 28, N/P6
# Influenza HA peptides = test: CD4/CD8 T-Cell response to Influenza HA peptides by IFN-ELISPOT of splenocytes after i.m. vaccination; format: in vivo, influenza strain California/7/2009; conditions: JLF99 + Tween20 1:0.5, HA modRNA 1 μg i.m. prime/boost d0/d28, N/P 6
# Influenza = test: Virus neutralizing titers by VNT Assay after i.m. vaccination; format: in vivo, influenza strain California/7/2009; conditions: JLF99 + Tween20 1:0.5, HA modRNA 1 μg i.m. prime/boost d0/d28, N/P 6
# Text: The animals were subjected to non-invasive serological surveillance over 49 days at different time points (day 0, day 14, day 21, day 28, day 49) and spleen was extracted at the end of the experiment for quantification of CD4/CD8 T-Cell response to Influenza HA peptides. Anti-Influenza HA antibodies in serum were quantified by enzyme-linked immunosorbent assay. Virus neutralizing titers were quantified by VNT Assay. CD4/CD8 T-Cell response was quantified by via IFN-ELISPOT of Splenocytes. FIG. 16A illustrates serological levels of specific IgG against HA over the course of the experiment. FIG. 16B illustrates Influenza specific neutralizing titers over the course of the experiment. FIG. 16C illustrates end-point titration of the serological levels of specific IgG against HA. FIG. 16D illustrates the CD8/CD4 response against HA-peptide pools.
# hPBMCs = test: Pro-inflammatory cytokine secretion by hPBMCs 24 hours after transfection (MSD Kit); format: cell-based, human; conditions: for Level of secretion of pro-inflammatory cytokines, IL-6, TNF-α, IL-1 and IFN-γ: oligosaccharide + Tween40 1:0.5, modRNA N/P 6, 24 hours, 10^6 hPBMCs
# Protocol: All groups received modRNA formulated at N/P 6. Formulations were complexed with RNA in MBG Buffer (final concentration 5% w/v Glucose, 10 mM MES, pH 6.1), at RNA final concentration of 0.15 mg/ml and the mixing ratio of the RNA containing solution and the oligosaccharide+Tween40 containing solution was 9:1 (v:v) for all the cases. IL-6, TNF-α, IL-1p and IFN-γ secretion after 24 hours of transfection of 10^6 hPMBCs was evaluated in the supernatants using MSD Kit Standard Protocol.
# FIG. 19A is a plot illustrating IL-6 secretion by hPBMCs upon exposure to different doses of tested formulations. FIG. 19B is a plot illustrating TNF-α secretion by hPBMCs upon exposure to different doses of tested formulations. FIG. 19C is a plot illustrating IL-1p secretion by hPBMCs upon exposure to different doses of tested formulations. FIG. 19D is a plot illustrating IFN-γ secretion by hPBMCs upon exposure to different doses of tested formulations. In the second part of the experiment, the same tested formulations were used in a vaccination study.
# [3] = tested on: Glycoprotein (Gc) of the Crimean-Congo Hemorrhagic Fever Virus (CCHFV); format: in vivo
# CCHFV-Gc peptides = format: in vivo, Crimean-Congo Hemorrhagic Fever Virus; conditions: JLF99 + Tween40 1:0.5, Gc saRNA 1.3 μg i.m. prime/boost, C57BL/6 IFNAR −/− mice
# [4] = JLF99 + Tween20 1:0.5, HA modRNA 1 μg i.m. prime/boost d0/d28, N/P 6
smiles,measurement,setting,value
CCCCCCCCCC(=O)OC1C(OC(=O)CCCCCCCCC)[C@H](OC(=O)CCCCCCCCC)C(CSCCNC(=S)NCCN(C)C)O[C@@H]1O[C@H]1OC(CSCCNC(=S)NCCN(C)C)[C@@H](OC(=O)CCCCCCCCC)C(OC(=O)CCCCCCCCC)C1OC(=O)CCCCCCCCC (stereo partly drawn) [JLF41],Difference in particle size between N/P 1 and N/P 6,[1]; modRNA,greater difference
CCCCCCCCCC(=O)OC1C(OC(=O)CCCCCCCCC)[C@H](OC(=O)CCCCCCCCC)C(CSCCNC(=S)NCCN2CCOCC2)O[C@@H]1O[C@H]1OC(CSCCNC(=S)NCCN2CCOCC2)[C@@H](OC(=O)CCCCCCCCC)C(OC(=O)CCCCCCCCC)C1OC(=O)CCCCCCCCC (stereo partly drawn) [JLF99],Hydrodynamic diameter,"[1]; saRNA, N/P 6",about 150 nm
same,modRNA expression (bioluminescence normalized to the JLF41-modRNA group),female BALB/c mice,promising modRNA expression
same,IgG against HA-antigen over the course of the experiment versus LNP benchmark,[2]; [4],no apparent differences
same,Serological concentration of IgG at the end-point (day 49),[2]; [4],comparable to the LNP group
same,Delivery of and immune response to different RNA platforms,"[2]; JLF99 + Tween20 1:0.5, taRNA, saRNA or modRNA 1 μg i.m. prime/boost, N/P 6",functionally delivered all the RNAs upon i.m injection and elicited a strong immune response
same,IgG concentration against HA,[2],then by JLF99 and JLF218
same,CD4-CD8 response versus LNP benchmark,Influenza HA peptides,no significant difference
same,Virus neutralizing titers versus LNP benchmark,Influenza,same findings
same,Adjuvanticity,"hPBMCs; oligosaccharide + Tween40 1:0.5, modRNA N/P 6",strong adjuvanticity
same,Immunological response to low immunogenic antigen CCHFV-Gc,"[3]; JLF99 + Tween40 1:0.5, Gc saRNA 1.3 μg i.m. prime/boost d0/d28, N/P6, C57BL/6 IFNAR −/− mice",strong immunological response
same,Antibody levels versus LNP benchmark,"[3]; after d28 (prior boost), JLF99 + Tween40 1:0.5, Gc saRNA 1.3 μg i.m., C57BL/6 IFNAR −/− mice",identical to the ones achieved by the LNP benchmark
same,Antibody level versus LNP benchmark,"[3]; d14, JLF99 + Tween40 1:0.5, Gc saRNA 1.3 μg i.m., C57BL/6 IFNAR −/− mice",lower than the LNP
same,T-cell responses against Gc-peptides versus LNP benchmark,CCHFV-Gc peptides,equally strong
CCCCCCCCCC(=O)OC1C(OC(=O)CCCCCCCCC)[C@H](OC(=O)CCCCCCCCC)C(CSCCNC(=S)NCCn2ccnc2)O[C@@H]1O[C@H]1OC(CSCCNC(=S)NCCn2ccnc2)[C@@H](OC(=O)CCCCCCCCC)C(OC(=O)CCCCCCCCC)C1OC(=O)CCCCCCCCC (stereo partly drawn) [JLF110],"Level of secretion of pro-inflammatory cytokines, IL-6, TNF-α, IL-1 and IFN-γ",hPBMCs,medium levels of secretion
CCCCCCCCCC(=O)OC1C(OC(=O)CCCCCCCCC)[C@H](OC(=O)CCCCCCCCC)C(CSCCNC(=S)NCCN2CCC(C(N)=O)CC2)O[C@@H]1O[C@H]1OC(CSCCNC(=S)NCCN2CCC(C(N)=O)CC2)[C@@H](OC(=O)CCCCCCCCC)C(OC(=O)CCCCCCCCC)C1OC(=O)CCCCCCCCC (stereo partly drawn) [JLF244],IgG concentration against HA,[2],highest IgG concentration
same,"Level of secretion of pro-inflammatory cytokines, IL-6, TNF-α, IL-1 and IFN-γ",hPBMCs,highest level of secretion
CCCCCCCCCC(=O)OC[C@@]1(O[C@H]2OC(CSCCNC(=S)NCCN3CCOCC3)[C@@H](OC(=O)CCCCCCCCC)C(OC(=O)CCCCCCCCC)C2OC(=O)CCCCCCCCC)O[C@H](CSCCNC(=S)NCCN2CCOCC2)[C@@H](OC(=O)CCCCCCCCC)[C@@H]1OC(=O)CCCCCCCCC (stereo partly drawn) [JLF218],IgG concentration against HA,[2],then by JLF99 and JLF218

# — patent US20240425541A1, “OLIGOSACCHARIDE COMPOUNDS AND COMPLEXES” (priority 2021, published 2024)
